In the assay the target is protein-protein interaction between SOS1 and KRAS G12D (Homo sapiens (Human), UniProt Q07889). Nature of the assay: KRAS::SOS1 AlphaScreen Binding Assay. From the text: KRAS::SOS1 AlphaScreen Binding Assay
Low IC50 values are indicative of high potency of the SOS1 inhibitor compound in this assay setting:
Reagents: • GST-tagged SOS1 (564_1049_GST_TEV_ECO) produced in-house • GST-TEV-SOS1 (564-1049) is purchased from Viva Biotech Ltd. • 6×His-Tev-K-RasG12D(1-169)Avi is purchased from Xtal BioStructures, Inc. (Lot # X129-110) • GDP (Sigma Cat No G7127) • AlphaLISA Glutathione Acceptor Beads (PerkinElmer, Cat No AL109) • AlphaScreen Streptavidin Donor Beads (PerkinElmer Cat No 6760002) • Assay plates: Proxiplate-384 PLUS, white (PerkinElmer, Cat No 6008289)
10 nM (final assay concentration) KRAS G12D, 10 μM (final assay concentration) GDP and 5 nM (final assay concentration) GST-SOS1 are mixed in assay buffer prior to use and kept at room temperature.
AlphaLISA Glutathione Acceptor Beads and AlphaScreen Streptavidin Donor Beads are mixed in assay buffer at a concentration of 10 μg/mL (final assay concentration) each prior to use and kept at room temperature.
Compounds are diluted to a final start concentration of 100 μM and are tested in duplicate. Assay-ready plates (ARPs) are generated using an Access Labcyte Workstation with a Labcyte Echo 550 or 555 accoustic dispenser. For compound a start concentration of 100 μM, 150 nL of compound solution is transferred per well in 11 concentrations in duplicate with serial 1:5 dilutions.
The assay is run using a fully automated robotic system in a darkened room below 100 Lux. 10 μL of KRAS::SOS1 GDP mix is added into columns 1-24 to the 150 nL of compound solution (final dilution in the assay 1:100, final DMSO concentration 1%).
After a 30 minute incubation time 5 μL of bead mix is added into columns 1-23. Plates are kept at room temperature in a darkened incubator. After a further 60 minute incubation, the signal is measured using a PerkinElmer Envision HTS Multilabel Reader using the AlphaScreen specifications from PerkinElmer. Each plate contains the following controls: • diluted DMSO+KRAS::SOS1 GDP mix+bead mix • diluted DMSO+KRAS::SOS1 GDP mix
IC50 values are calculated and analyzed using a 4 parametric logistic model.
A general note: In Alpha technology, singlet oxygen from a donor bead excites a nearby acceptor bead.

[1] abbreviates: KRAS G12D::SOS1 AlphaScreen, measured without EDTA unless marked with an asterisk.
Where [2] appears, read: Table 20, KRAS::SOS1 AlphaScreen (SOS1 / KRAS G12D).

Data on 60 compounds can be found in US10829487B2, “Benzylamino substituted pyridopyrimidinones and derivatives as SOS1 inhibitors” (Boehringer Ingelheim International GmbH, priority 2017, dated 2020).

By IC50 is commonly meant the concentration at which inhibition is half-maximal. High values mean a need for much substance, low ones inhibition by little substance.

SMILES strings stand for the structures.

Chain of protein-protein interaction between SOS1 and KRAS G12D (Q07889 564-1049, stated change not applied): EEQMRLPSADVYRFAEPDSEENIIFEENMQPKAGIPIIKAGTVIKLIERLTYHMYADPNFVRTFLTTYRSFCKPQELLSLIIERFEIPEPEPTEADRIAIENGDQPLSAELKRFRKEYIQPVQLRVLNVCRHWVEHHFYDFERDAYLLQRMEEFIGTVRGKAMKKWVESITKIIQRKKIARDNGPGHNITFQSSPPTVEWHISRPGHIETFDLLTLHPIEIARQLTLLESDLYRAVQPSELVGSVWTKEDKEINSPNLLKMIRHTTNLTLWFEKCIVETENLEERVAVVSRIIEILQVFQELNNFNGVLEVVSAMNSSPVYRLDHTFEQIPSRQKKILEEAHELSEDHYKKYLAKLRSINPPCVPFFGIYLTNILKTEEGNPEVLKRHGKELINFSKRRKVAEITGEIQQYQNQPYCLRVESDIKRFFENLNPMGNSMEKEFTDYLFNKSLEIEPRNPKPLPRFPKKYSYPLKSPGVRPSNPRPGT

Under setting [1], `C[C@@H](Nc1ncnc2cc(=O)n(C3(C)CC3)cc12)c1cccc2c1CCC2=O` [I-105] came in with an IC50 of 25 nM.
Same read-out and setting: the same measure for `Cc1nc(N[C@H](C)c2cccc(C(F)(F)F)c2)c2cn(C34CCC(CC3)C4)c(=O)cc2n1` [I-115]: 10 nM; for `Cc1nc(N[C@H](C)c2cccc(C(F)F)c2F)c2cn(C3(C(F)(F)F)CCOC3)c(=O)cc2n1` (stereo partly drawn) [I-117]: 9 nM.
Turning to `C[C@@H](Nc1ncnc2cc(=O)n(C3(CF)CC3)cc12)c1cccc(C(C)(F)F)c1F` [I-77], the IC50 under setting [2] amounted to 6 nM.
Same read-out and setting: the same measure for `CCC1(n2cc3c(N[C@H](C)c4cccc(C(F)F)c4F)nc(C)nc3cc2=O)CC1` [I-5]: 12 nM.
`Cc1c(=O)n(C2(CF)CC2)cc2c(N[C@H](C)c3cccc(C(F)F)c3F)ncnc12` [I-162] returned a 50% inhibitory concentration (IC50) under setting [1] of 7 nM.
The compound `Cc1nc(N[C@H](C)c2cccc(C(F)(F)C3CCCO3)c2)c2cn(C3(C)CC3)c(=O)c(F)c2n1` (stereo partly drawn) [I-92] yielded a half-maximal inhibitory concentration (IC50) under setting [2] of 4 nM.
Still for that read-out and setting: the same measure for `Cc1nc(N[C@H](C)c2cccc(C(F)F)c2F)c2cn(C3(c4ccc(F)cc4)CC3)c(=O)cc2n1` [I-9]: 30 nM.
On the same count and under the same terms, the value for `Cc1nc(N[C@H](C)c2cccc(C(F)(F)F)c2C)c2cn([C@H]3C[C@H](O)C3)c(=O)cc2n1` [I-43] was 5 nM; that for `Cc1nc(N[C@H](C)c2cccc(C(F)F)c2F)c2cn(C3(C)CC3)c(=O)cc2n1` [I-1] was 5 nM.
On the same count and under the same terms, the value for `C[C@@H](Nc1ncnc2cc(=O)n(C3(CF)CC3)cc12)c1cccc(C(F)F)c1F` [I-63] was 7 nM; that for `Cc1nc(N[C@H](C)c2cccc(C(F)(F)F)c2)c2cn(C3CC3)c(=O)cc2n1` [I-26] was 37 nM; that for `Cc1nc(N[C@H](C)c2cccc(C(F)(F)F)c2)c2cn(C3CCCC3)c(=O)cc2n1` [I-28] was 27 nM.
Turning to `Cc1nc(N[C@H](C)c2cccc(C(F)F)c2F)c2cn(C3(CF)CC3)c(=O)cc2n1` [I-2], under setting [2], the IC50 came out at 4 nM.
Turning to `Cc1nc(N[C@H](C)c2cccc(C(F)(F)F)c2F)c2cn(C3(c4ccccc4)CCOCC3)c(=O)cc2n1` [I-36], the IC50 under setting [2] was determined as 40 nM.
Same read-out and setting: the same measure for `Cc1nc(N[C@H](C)c2cccc(C(F)F)c2F)c2cn(C34CC(C3)C4)c(=O)cc2n1` [I-15]: 8 nM; for `Cc1nc(N[C@H](C)c2cccc(C(F)(F)F)c2F)c2cn([C@@H]3CCOC3)c(=O)cc2n1` [I-33]: 38 nM.
Regarding `Cc1nc(N[C@H](C)c2cccc(C(F)(F)F)c2)c2cn(C3CCCCC3)c(=O)cc2n1` [I-29], the IC50 under setting [2] amounted to 24 nM.
Still for that read-out and setting: the same measure for `C[C@@H](Nc1ncnc2cc(=O)n(C34CC(C3)C4)cc12)c1cccc(C(F)F)c1F` [I-70]: 7 nM.
Still for that read-out and setting: the value for `Cc1nc(N[C@H](C)c2cccc(C(F)(F)F)c2C)c2cn([C@H]3C[C@@H](O)C3)c(=O)cc2n1` [I-44] was 12 nM.
In the case of `Cc1nc(N[C@H](C)c2cccc(C(F)F)c2F)c2cn(C3CCOCC3)c(=O)cc2n1` [I-18], the half-inhibitory concentration (IC50) under setting [2] was 5 nM.
On the same count and under the same terms, the same measure for `Cc1nc(N[C@H](C)c2cccc(C(F)(F)F)c2F)c2cn([C@H]3[C@@H]4COC[C@@H]43)c(=O)cc2n1` [I-32]: 12 nM.
`C[C@@H](Nc1ncnc2cc(=O)n(C34CC(C3)C4)cc12)c1cccc2c1CCC2=O` [I-107] gave an IC50 under setting [1] of 17 nM.
`Cc1nc(N[C@H](C)c2cccc(C(F)(F)F)c2F)c2cn(C3CCOCC3)c(=O)cc2n1` [I-35]: the IC50 under setting [2] stood at 9 nM.
On the same count and under the same terms, the value for `Cc1nc(N[C@H](C)c2cccc(C(F)F)c2F)c2cn(C3(c4ccncc4)CC3)c(=O)cc2n1` [I-7] was 8 nM; that for `Cc1nc(N[C@H](C)c2cccc(C(F)(F)F)c2C)c2cn(C3(C)CC(F)(F)C3)c(=O)cc2n1` [I-46] was 31 nM.
Same read-out and setting: the same measure for `Cc1nc(N[C@H](C)c2cccc(C(F)(F)[C@@H]3CCCO3)c2F)c2cn(C3(C)CC3)c(=O)c(F)c2n1` [I-94]: 5 nM.
In turn, `Cc1nc(N[C@H](C)c2cccc(C(F)F)c2F)c2cn(C34CCC(CC3)CC4)c(=O)cc2n1` [I-120] had a concentration for half-maximal inhibition (IC50) under setting [1] of 6 nM.
On to `C[C@@H](Nc1ncnc2cc(=O)n(C3(C(F)(F)F)CC3)cc12)c1cccc(C(F)F)c1F` [I-65], for which, under setting [2], the IC50 is 10 nM.
Still for that read-out and setting: the same measure for `C[C@@H](Nc1ncnc2cc(=O)n(C3(C(F)F)CC3)cc12)c1cccc(C(F)F)c1F` [I-64]: 8 nM; for `Cc1nc(N[C@H](C)c2cccc(C(F)(F)C(C)(C)O)c2F)c2cn(C34CC(F)(C3)C4)c(=O)c(F)c2n1` [I-91]: 4 nM; for `Cc1nc(N[C@H](C)c2cccc(C(F)F)c2F)c2cn(C3(c4ccccc4)CC3)c(=O)cc2n1` [I-8]: 16 nM.
Take `Cc1nc(N[C@H](C)c2cccc(C(F)(F)F)c2)c2cn(C3(C)CCCOC3)c(=O)cc2n1` (stereo partly drawn) [I-113]: the 50% inhibitory concentration (IC50) under setting [1] came to 39 nM.
In the case of `C[C@@H](Nc1ncnc2cc(=O)n(C3(C)CC3)cc12)c1cccc(C(C)(F)F)c1F` [I-76], the half-inhibitory concentration (IC50) under setting [2] came out at 7 nM.
Same read-out and setting: the value for `Cc1nc(N[C@H](C)c2cccc(C(F)F)c2F)c2cn(C34CC(N5CCOCC5)(C3)C4)c(=O)cc2n1` [I-17] was 5 nM; that for `Cc1nc(N[C@H](C)c2cccc(C(F)(F)F)c2)c2cn(C3CCC(F)(F)CC3)c(=O)cc2n1` [I-30] was 39 nM.
For `Cc1nc(N[C@H](C)c2cccc(C(F)(F)F)c2)c2cn(C3CCOCC3)c(=O)cc2n1` [I-31], under setting [2], the IC50 came out at 11 nM.
In the case of `Cc1c(=O)n(C2(C(F)(F)F)CC2)cc2c(N[C@H](C)c3cccc(C(F)F)c3F)ncnc12` [I-164], under setting [1], the half-inhibitory concentration (IC50) worked out at 13 nM.
On the same count and under the same terms, the same measure for `Cc1nc(N[C@H](C)c2cccc(C(F)(F)F)c2)c2cn(C3(C)CCN(C)CC3)c(=O)cc2n1` [I-114]: 26 nM.
Compound `Cc1nc(N[C@H](C)c2cccc(C(F)(F)F)c2C)c2cn([C@H]3C[C@@](O)(C(F)(F)F)C3)c(=O)cc2n1` [I-48] registered a half-inhibitory concentration (IC50) under setting [2] of 27 nM.
As for `Cc1c(=O)n([C@H]2C[C@H](F)C2)cc2c(N[C@H](C)c3cccc(C(F)F)c3F)ncnc12` [I-168], the IC50 under setting [1] amounted to 9 nM.
Compound `C[C@@H](Nc1ncnc2cc(=O)n(C3(C)CC3)cc12)c1cccc(C(F)F)c1F` [I-62] gave a half-maximal inhibitory concentration (IC50) under setting [2] of 7 nM.
Compound `Cc1nc(N[C@H](C)c2cccc(C(C)(F)F)c2F)c2cn(C34CC(F)(C3)C4)c(=O)cc2n1` [I-56] returned an IC50 under setting [2] of 15 nM.
On to `Cc1nc(N[C@H](C)c2cccc(C(F)F)c2C)c2cn(C34CCC(C(=O)N(C)C)(CC3)C4)c(=O)cc2n1` [I-24], for which the IC50 under setting [2] is 10 nM.
Under setting [1], `Cc1c(=O)n(C23CC(F)(C2)C3)cc2c(N[C@H](C)c3cccc(C(F)(F)C(C)(C)O)c3F)ncnc12` [I-178] registered an IC50 of 5 nM.
Still for that read-out and setting: the same measure for `Cc1nc(N[C@H](C)c2cccc(C(F)F)c2F)c2cn(C3(C)CC3)c(=O)c(C)c2n1` [I-155]: 5 nM.
For the compound `Cc1nc(N[C@H](C)c2cccc(C(C)(F)F)c2F)c2cn(C3(C(F)(F)F)CC3)c(=O)cc2n1` [I-55], under setting [2], the half-maximal inhibitory concentration (IC50) is 13 nM.
`COCC1(n2cc3c(N[C@H](C)c4cccc(C(F)F)c4F)nc(C)nc3cc2=O)CC1` [I-6] gave an IC50 under setting [2] of 6 nM.
On the same count and under the same terms, the value for `Cc1nc(N[C@H](C)c2cccc(C(F)F)c2F)c2cn(C34CCC(CC3)C4)c(=O)cc2n1` [I-19] was 2 nM; that for `Cc1nc(N[C@H](C)c2cccc(C(F)(F)F)c2F)c2cn([C@H]3CCOC3)c(=O)cc2n1` [I-34] was 39 nM.
The same measure, in the same setting: the value for `Cc1nc(N[C@H](C)c2cccc3c2CCC3(F)F)c2cn(C34CCN(CC3)C4)c(=O)cc2n1` [I-60] was 2 nM; that for `Cc1nc(N[C@H](C)c2cccc(C(F)(F)C3CCCO3)c2)c2cn(C3(C(F)F)CC3)c(=O)c(F)c2n1` (stereo partly drawn) [I-93] was 3 nM.
The same measure, in the same setting: the same measure for `Cc1nc(N[C@H](C)c2cccc(C(F)F)c2F)c2cn(C34CC(F)(C3)C4)c(=O)cc2n1` [I-16]: 12 nM.
Compound `Cc1nc(N[C@H](C)c2cccc(C(F)(F)[C@@H]3CCCO3)c2F)c2cn(C3(C(F)F)CC3)c(=O)c(F)c2n1` [I-95] came in with an IC50 under setting [2] of 5 nM.
Compound `Cc1c(=O)n(C2(CF)CC2)cc2c(N[C@H](C)c3cccc(C(C)(F)F)c3F)ncnc12` [I-175] gave a 50% inhibitory concentration (IC50) under setting [1] of 13 nM.
`Cc1nc(N[C@H](C)c2cccc(C(F)F)c2F)c2cn(C3(C)CCC3)c(=O)cc2n1` [I-11] displayed a half-maximal inhibitory concentration (IC50) under setting [2] of 5 nM.
With `Cc1nc(N[C@H](C)c2cccc(C(F)F)c2F)c2cn(C34CCC(O)(CC3)CC4)c(=O)cc2n1` [I-122], the IC50 under setting [1] came to 3 nM.
Take `C[C@@H](Nc1ncnc2cc(=O)n(C3CC34CC4)cc12)c1cccc(C(F)F)c1F` (stereo partly drawn) [I-66]: the half-maximal inhibitory concentration (IC50) under setting [2] turned out to be 15 nM.
Still for that read-out and setting: the value for `Cc1nc(N[C@H](C)c2cccc(C(F)F)c2F)c2cn(C3(C(F)F)CC3)c(=O)c(F)c2n1` [I-82] was 5 nM.
`Cc1nc(N[C@H](C)c2cccc(C(F)(F)F)c2)c2cn(C(C)(C)C)c(=O)cc2n1` [I-110] showed an IC50 under setting [1] of 25 nM.
